{
  "source": "ChEMBL document CHEMBL5620347",
  "about": "“Discovery of thiohydantoin based antagonists of androgen receptor with efficient degradation for the treatment of prostate cancer” (Eur J Med Chem, 2023)",
  "key": {"[1]": {"test_system": "LNCaP", "test": "Antitumor activity against human LNCaP cells xenografted in BALB/c nude mouse assessed as tumor growth inhibition at 30 mg/kg, ip measured every 2 days for 28 days relative to control", "conditions": "672 h, read-out: TGI"}, "[2]": {"test_system": "CWR22R", "test": "Antitumor activity against human 22Rv1 cells xenografted in BALB/c nude mouse assessed as tumor growth inhibition at 30 mg/kg, ip measured every 2 days for 28 days relative to control", "conditions": "22Rv1, 672 h, read-out: TGI"}, "[3]": {"test_system": "LNCaP", "test": "cells", "conditions": "Homo sapiens, 72 h", "description": "Cytotoxicity against androgen receptor dependent human LNCaP cells assessed as inhibition of cell growth incubated for 72 hrs by MTT assay"}, "[4]": {"test_system": "DU-145", "test": "cells", "conditions": "Homo sapiens, DU-145, 72 h", "description": "Cytotoxicity against androgen receptor independent human DU-145 cells assessed as inhibition of cell growth incubated for 72 hrs by MTT assay"}, "[5]": {"test": "AUC (0 to infinity) in Sprague-Dawley rat at 5 mg/kg, iv measured upto 1440 mins by LC-MS/MS analysis", "format": "ADME, organism-based", "conditions": "in vivo"}, "[6]": {"test": "Half life in Sprague-Dawley rat at 5 mg/kg, iv measured upto 1440 mins by LC-MS/MS analysis", "format": "ADME, organism-based", "conditions": "in vivo"}, "[7]": {"test": "Volume of distribution at steady state in Sprague-Dawley rat at 5 mg/kg, iv measured upto 1440 mins by LC-MS/MS analysis", "format": "ADME, organism-based", "conditions": "in vivo, read-out: Vdss"}, "[8]": {"test": "Clearance in Sprague-Dawley rat at 5 mg/kg, iv measured upto 1440 mins by LC-MS/MS analysis", "format": "ADME, organism-based", "conditions": "in vivo"}, "[9]": {"test": "Cmax in Sprague-Dawley rat at 20 mg/kg, po measured upto 1440 mins by LC-MS/MS analysis", "format": "ADME, organism-based", "conditions": "in vivo"}, "[10]": {"test": "AUC (0 to infinity) in Sprague-Dawley rat at 20 mg/kg, po measured upto 1440 mins by LC-MS/MS analysis", "format": "ADME, organism-based", "conditions": "in vivo, 24 h"}, "[11]": {"test": "Half life in Sprague-Dawley rat at 20 mg/kg, po measured upto 1440 mins by LC-MS/MS analysis", "format": "ADME, organism-based", "conditions": "in vivo"}, "[12]": {"test": "Volume of distribution at steady state in Sprague-Dawley rat at 20 mg/kg, po measured upto 1440 mins by LC-MS/MS analysis", "format": "ADME, organism-based", "conditions": "in vivo, 24 h"}, "[13]": {"test": "Clearance in Sprague-Dawley rat at 20 mg/kg, po measured upto 1440 mins by LC-MS/MS analysis", "format": "ADME, organism-based", "conditions": "in vivo, 24 h"}, "[14]": {"test": "Oral bioavailability in Sprague-Dawley rat at 20 mg/kg measured upto 1440 mins by LC-MS/MS analysis", "format": "ADME, organism-based", "conditions": "in vivo"}, "[15]": {"test": "AUC (0 to infinity) in Sprague-Dawley rat at 20 mg/kg, ip measured upto 1440 mins by LC-MS/MS analysis", "format": "ADME, organism-based", "conditions": "in vivo"}, "[16]": {"test": "Volume of distribution at steady state in Sprague-Dawley rat at 20 mg/kg, ip measured upto 1440 mins by LC-MS/MS analysis", "format": "ADME, organism-based", "conditions": "in vivo, 24 h"}, "[17]": {"test": "Clearance in Sprague-Dawley rat at 20 mg/kg, ip measured upto 1440 mins by LC-MS/MS analysis", "format": "ADME, organism-based", "conditions": "in vivo"}, "[18]": {"test": "Bioavailability in Sprague-Dawley rat at 20 mg/kg, ip measured upto 1440 mins by LC-MS/MS analysis", "format": "ADME, organism-based", "conditions": "in vivo"}, "[19]": {"test": "Toxicity in BALB/c nude mouse xenografted with human LNCaP cells assessed as reduction in body weight at 30 mg/kg, ip measured every 2 days for 28 days", "format": "organism-based", "conditions": "in vivo, 672 h, time 28 day"}, "[20]": {"test": "Toxicity in BALB/c nude mouse xenografted with human 22Rv1 cells assessed as reduction in body weight at 30 mg/kg, ip measured every 2 days for 28 days", "format": "organism-based, CWR22R", "conditions": "in vivo, 672 h, time 28 day"}, "[21]": {"test": "Toxicity in BALB/c mouse assessed as appearance of lesions in lung at 30 mg/kg, ip measured after 3 days by H and E staining based analysis", "format": "organism-based", "conditions": "in vivo, 72 h, time 3 day"}, "[22]": {"test": "Toxicity in BALB/c mouse assessed as appearance of lesions in liver at 30 mg/kg, ip measured after 3 days by H and E staining based analysis", "format": "organism-based", "conditions": "in vivo, 72 h, time 3 day"}, "[23]": {"test": "Toxicity in BALB/c mouse assessed as appearance of lesions in spleen at 30 mg/kg, ip measured after 3 days by H and E staining based analysis", "format": "organism-based", "conditions": "in vivo, 72 h, time 3 day"}, "[24]": {"test": "Toxicity in BALB/c mouse assessed as appearance of lesions in kidney at 30 mg/kg, ip measured after 3 days by H and E staining based analysis", "format": "organism-based", "conditions": "in vivo, 72 h, time 3 day"}, "[25]": {"test": "Toxicity in BALB/c mouse assessed as appearance of lesions in heart at 30 mg/kg, ip measured after 3 days by H and E staining based analysis", "format": "organism-based", "conditions": "in vivo, 72 h, time 3 day"}, "[26]": {"test": "Toxicity in BALB/c mouse assessed as effect on serum ALT level at 30 mg/kg, ip measured after 3 days by biochemical analysis", "format": "organism-based", "conditions": "in vivo, 72 h, time 3 day"}, "[27]": {"test": "Toxicity in BALB/c mouse assessed as effect on serum AST level at 30 mg/kg, ip measured after 3 days by biochemical analysis", "format": "organism-based", "conditions": "in vivo, 72 h, time 3 day"}, "[28]": {"test": "Toxicity in BALB/c mouse assessed as effect on BUN level at 30 mg/kg, ip measured after 3 days by biochemical analysis", "format": "organism-based", "conditions": "in vivo, 72 h, time 3 day"}, "[29]": {"test": "Toxicity in BALB/c mouse assessed as effect on creatinine level at 30 mg/kg, ip measured after 3 days by biochemical analysis", "format": "organism-based", "conditions": "in vivo, 72 h, time 3 day"}, "[30]": {"test": "Toxicity in BALB/c mouse assessed as effect on serum uric acid level at 30 mg/kg, ip measured after 3 days by biochemical analysis", "format": "organism-based", "conditions": "in vivo, 72 h, time 3 day"}},
  "data": [
    {"smiles": "CNC(=O)c1ccc(N2C(=S)N(c3ccc(C#N)c(C(F)(F)F)c3)C(=O)C2(C)C)cc1F", "note": "[ENZALUTAMIDE]", "values": [
      {"measurement": "inhibition in vivo at 30 mg/kg", "setting": "[1]", "result": 41.5, "unit": "%"},
      {"measurement": "inhibition in vivo at 30 mg/kg", "setting": "[2]", "result": 39.9, "unit": "%"},
      {"measurement": "IC50", "setting": "[3]", "result": 13.9, "unit": "µM"},
      {"measurement": "IC50", "setting": "[4]", "result": "> 50", "unit": "µM"}
    ]},
    {"smiles": "N#Cc1ccc(N2C(=O)CN(CCCN3CCCc4ccccc43)C2=S)cc1C(F)(F)F", "values": [
      {"measurement": "AUC(0-inf)", "setting": "[5]", "result": 3.5, "unit": "µg·h/mL"},
      {"measurement": "half-life", "setting": "[6]", "result": 5.02, "unit": "h"},
      {"measurement": "Vd", "setting": "[7]", "result": 6.9, "unit": "L/kg"},
      {"measurement": "clearance", "setting": "[8]", "result": 0.94, "unit": "L/h/kg"},
      {"measurement": "Cmax", "setting": "[9]", "result": 0.0921, "unit": "µg/mL"},
      {"measurement": "AUC", "setting": "[10]", "result": 0.80518, "unit": "µg·h/mL"},
      {"measurement": "half-life", "setting": "[11]", "result": 3.06, "unit": "h"},
      {"measurement": "Vdss", "setting": "[12]", "result": 16.72, "unit": "L/kg"},
      {"measurement": "CL", "setting": "[13]", "result": 5.09, "unit": "L/h/kg"},
      {"measurement": "bioavailability", "setting": "[14]", "result": 5.74, "unit": "%"},
      {"measurement": "AUC(0-inf)", "setting": "[15]", "result": 9.16, "unit": "µg·h/mL"},
      {"measurement": "Vdss", "setting": "[16]", "result": 8.77, "unit": "L/kg"},
      {"measurement": "CL/F", "setting": "[17]", "result": 3.61, "unit": "L/h/kg"},
      {"measurement": "bioavailability", "setting": "[18]", "result": 67.2, "unit": "%"},
      {"measurement": "Activity", "setting": "[19]", "result": "Non-Toxic"},
      {"measurement": "Activity", "setting": "[20]", "result": "Non-Toxic"},
      {"measurement": "Activity", "setting": "[21]", "result": "Non-Toxic"},
      {"measurement": "Activity", "setting": "[22]", "result": "Non-Toxic"},
      {"measurement": "Activity", "setting": "[23]", "result": "Non-Toxic"},
      {"measurement": "Activity", "setting": "[24]", "result": "Non-Toxic"},
      {"measurement": "Activity", "setting": "[25]", "result": "Non-Toxic"},
      {"measurement": "Activity", "setting": "[26]", "result": "Non-Toxic"},
      {"measurement": "Activity", "setting": "[27]", "result": "Non-Toxic"},
      {"measurement": "Activity", "setting": "[28]", "result": "Non-Toxic"},
      {"measurement": "Activity", "setting": "[29]", "result": "Non-Toxic"},
      {"measurement": "Activity", "setting": "[30]", "result": "Non-Toxic"}
    ]}
  ]
}
